Reference: patent US20220137060A1, “FULL LENGTH KINASE ACTIVITY-CONFORMATION REPORTER” (UNIVERSITAT INNSBRUCK, priority 2016, published 2022)
Entries after “also recorded” stand apart in the source; their conditions may differ.

Assays:
Type in all cases: cell-based
wild type BRAF [1] = molecular target: T1, wild type BRAF (Homo sapiens, UniProt P15056); assay: Intramolecular Rluc PCA reporter F[1]-BRAF-F[2] (wild type), transiently transfected HEK293 cells; parameters: Renilla luciferase PCA fragment F[1]; Renilla luciferase PCA fragment F[2]; expressed in transfected cells; host or cells: HEK293 (transient, pcDNA3.1); conditions: for Effect on reporter luminescence signal: HEK293, 1 μM, 3 h treatments (FIG. 5A, 6A)
Experimental: (§1) Cell culture and antibodies. HEK293 and SW480 cells were grown in DMEM supplemented with 10% (vol/vol) FBS. Cells were passaged three times a week to keep the cells in culture. Transient transfections were performed with Transfectin reagent (Bio-Rad, #1703350). […] The primary antibody used was anti-BRAF(F-7) (Santa Cruiz Biotechnology, #sc-5284).
(§2) Expression constructs. The Rluc PCA hybrid proteins F[1]-BRAF-F[2] and F[1]-BRAF(V600E)-F[2] have been generated using the identical cloning approach. Following PCR amplification of the human BRAF or BRAF(V600E) gene, the coding region of the BRAF protein (SEQ ID No: 2 or 5) was fused N-terminally with F[1] (SEQ ID No: 13) and C-terminally with F[2] (SEQ ID No: 17) of the Rluc PCA coding region. In addition. the sequence of two interjacent 10-aa linkers (GGGGS)2 (SEQ ID No: 18) was integrated by cloning. As vector backbone we used the pcDNA3.1 plasmid. The MEK1 expression constructs (s. SEQ ID No: 23) and the Gluc PCA based BRAF reporter (s. SEQ ID No: 24) were prepared analogously.
(§3) Renilla/Gaussia luciferase PCA experiments. Cells were grown in DMEM supplemented with 10% FBS. Indicated versions of the Rluc PCA based biosensor were transiently overexpressed in 24-well plate format. 48 hours post-transfection, the growth medium was partially removed and different compounds added with concentrations as indicated in the figure legends. To measure the dose-dependent effect of the lead molecules (candidate compounds) on the intramolecular Rluc PCA reporter, the attached cells were treated with different concentrations and for different time-frames. The time-dependent consequences of the lead compounds on kinase conformations were recorded with a final compound concentration of 1 μM. For the Rluc PCA measurements the growth medium was carefully removed and the cells were washed with PBS. Cells were resuspended in PBS and the cell suspensions were transferred to 96-well plates and subjected to luminescence analysis using the LMaxTM-II-384 luminometer (Molecular Devices). Rluc luminescence signals were integrated for 10 seconds with a delay time of 3 seconds following addition of 20 μl of the Rluc substrate benzyl-coelenterazine (5 μM; Nanolight, #301) in PBS with a concentration of 25 nM. Dose-dependent effects of drug exposure on luminescence signals originating from BRAF conformations were compared using indicated controls. Cells were collected after PCA measurements and lysed with Laemmli sample buffer to control the protein expression levels. In case of Gluc reporters, coelenterazine was used as luminescence substrate.
Target sequence in this assay (P15056 with tags, fused parts or gaps): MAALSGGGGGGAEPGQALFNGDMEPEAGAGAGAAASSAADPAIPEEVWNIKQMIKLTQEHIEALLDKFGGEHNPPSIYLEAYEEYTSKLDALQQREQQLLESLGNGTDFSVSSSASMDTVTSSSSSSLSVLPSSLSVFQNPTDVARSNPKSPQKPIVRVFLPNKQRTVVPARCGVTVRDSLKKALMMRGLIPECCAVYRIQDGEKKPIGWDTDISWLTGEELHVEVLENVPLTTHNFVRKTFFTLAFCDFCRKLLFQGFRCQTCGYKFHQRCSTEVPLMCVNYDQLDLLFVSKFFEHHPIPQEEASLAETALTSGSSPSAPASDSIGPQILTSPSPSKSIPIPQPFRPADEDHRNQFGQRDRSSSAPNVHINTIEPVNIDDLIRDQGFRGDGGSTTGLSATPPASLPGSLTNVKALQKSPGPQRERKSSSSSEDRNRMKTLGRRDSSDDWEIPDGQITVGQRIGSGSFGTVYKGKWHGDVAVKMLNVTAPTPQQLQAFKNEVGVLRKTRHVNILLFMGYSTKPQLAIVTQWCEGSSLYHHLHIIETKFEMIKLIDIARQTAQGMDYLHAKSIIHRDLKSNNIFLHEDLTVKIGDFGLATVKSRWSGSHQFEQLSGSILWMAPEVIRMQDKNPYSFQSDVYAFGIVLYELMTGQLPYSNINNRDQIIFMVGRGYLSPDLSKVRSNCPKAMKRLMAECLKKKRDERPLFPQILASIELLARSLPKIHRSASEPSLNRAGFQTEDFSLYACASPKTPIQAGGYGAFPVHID

BRAF-V600E [2] = molecular target: T2, BRAF-V600E (Homo sapiens, UniProt P15056, V600E); assay: Intramolecular Rluc PCA reporter F[1]-BRAF(V600E)-F[2], transiently transfected HEK293 cells; conditions: HEK293, 1 μM; for Effect on reporter bioluminescence signal / conformation: BRAF V600E reporter, 3 h treatments (FIG. 5B, 6B)
T2 construct: Renilla luciferase PCA fragment F[1]; Renilla luciferase PCA fragment F[2]; expressed in transfected cells; host or cells: HEK293 (transient, pcDNA3.1)
Experimental: as §1, §2
Mutagenesis. Site directed mutagenesis have been performed to generate following mutations in the reporter constructs: V600E, V600K, V600R, D594G, and G469A in BRAF and S218A and the S218E/S222E double mutation in MEK1.
as §3

BRAF D594G = BRAF D594G (Homo sapiens, UniProt P15056, D594G); assay: Intramolecular Rluc PCA mutant BRAF reporter (D594G), transiently transfected HEK293 cells; conditions: HEK293, 1 μM, 3 h treatments (FIG. 5B)
Experimental: as §1
(§4) Expression constructs. The Rluc PCA hybrid proteins F[1]-BRAF-F[2] and F[1]-BRAF(V600E)-F[2] have been generated using the identical cloning approach. Following PCR amplification of the human BRAF or BRAF(V600E) gene, the coding region of the BRAF protein (SEQ ID No: 2 or 5) was fused N-terminally with F[1] (SEQ ID No: 13) and C-terminally with F[2] (SEQ ID No: 17) of the Rluc PCA coding region. […]
(§5) Renilla/Gaussia luciferase PCA experiments. […] The time-dependent consequences of the lead compounds on kinase conformations were recorded with a final compound concentration of 1 μM. […] Cells were resuspended in PBS and the cell suspensions were transferred to 96-well plates and subjected to luminescence analysis using the LMaxTM-II-384 luminometer (Molecular Devices). Rluc luminescence signals were integrated for 10 seconds with a delay time of 3 seconds following addition of 20 μl of the Rluc substrate benzyl-coelenterazine (5 μM; Nanolight, #301) in PBS with a concentration of 25 nM. […] In case of Gluc reporters, coelenterazine was used as luminescence substrate.

BRAF G469A = BRAF G469A (Homo sapiens, UniProt P15056, G469A); assay: Intramolecular Rluc PCA mutant BRAF reporter (G469A), transiently transfected HEK293 cells; conditions: HEK293, 1 μM, 3 h treatments (FIG. 5B)
Experimental: as §1, §4, §5

BRAF-V600E [3] = molecular target: T2, BRAF-V600E; assay: Intramolecular Gluc PCA reporter GlucF[1]-BRAF-V600E-GlucF[2], transiently transfected HEK293 cells; conditions: HEK293, 1 μM, 3 h treatments (FIG. 8)
Experimental: as §1, §4, §5

BRAF V600K = BRAF V600K (Homo sapiens, UniProt P15056, V600K); assay: Intramolecular Rluc PCA mutant BRAF reporter (V600K), transiently transfected HEK293 cells; conditions: HEK293, 1 μM, 3 h treatments (FIG. 5B)
Experimental: as §1, §4, §5

wild type BRAF [4] = molecular target: T1, wild type BRAF; assay: Intramolecular Gluc PCA reporter GlucF[1]-BRAF-GlucF[2] (wild type), transiently transfected HEK293 cells; conditions: HEK293, 1 μM, 3 h treatments (FIG. 8)
Experimental: as §1, §4, §5
Target sequence in this assay (P15056 with tags, fused parts or gaps): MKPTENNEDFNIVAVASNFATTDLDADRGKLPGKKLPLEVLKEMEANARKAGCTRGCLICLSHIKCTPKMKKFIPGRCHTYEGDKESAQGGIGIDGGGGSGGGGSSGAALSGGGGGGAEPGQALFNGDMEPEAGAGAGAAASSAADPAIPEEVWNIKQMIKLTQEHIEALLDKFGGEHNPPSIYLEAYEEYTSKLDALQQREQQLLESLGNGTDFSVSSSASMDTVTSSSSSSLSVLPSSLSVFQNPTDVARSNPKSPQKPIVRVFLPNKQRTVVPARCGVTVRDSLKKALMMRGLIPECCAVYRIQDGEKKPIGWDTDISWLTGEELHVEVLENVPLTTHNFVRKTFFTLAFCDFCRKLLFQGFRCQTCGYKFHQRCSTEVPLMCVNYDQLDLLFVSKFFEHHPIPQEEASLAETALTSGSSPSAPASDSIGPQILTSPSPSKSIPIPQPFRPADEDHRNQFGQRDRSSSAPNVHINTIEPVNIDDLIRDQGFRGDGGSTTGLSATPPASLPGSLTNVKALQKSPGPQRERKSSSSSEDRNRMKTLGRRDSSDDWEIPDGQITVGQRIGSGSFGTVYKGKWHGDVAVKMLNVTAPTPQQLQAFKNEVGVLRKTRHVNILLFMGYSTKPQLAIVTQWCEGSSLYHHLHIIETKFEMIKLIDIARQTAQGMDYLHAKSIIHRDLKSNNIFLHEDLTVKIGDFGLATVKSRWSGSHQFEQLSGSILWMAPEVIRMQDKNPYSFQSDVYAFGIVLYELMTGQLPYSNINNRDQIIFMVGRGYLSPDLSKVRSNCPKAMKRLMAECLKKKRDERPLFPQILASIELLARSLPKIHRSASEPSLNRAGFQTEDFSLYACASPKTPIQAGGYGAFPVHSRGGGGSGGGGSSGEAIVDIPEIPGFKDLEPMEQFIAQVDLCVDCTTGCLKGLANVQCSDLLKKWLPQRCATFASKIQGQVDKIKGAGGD

BRAF V600R = BRAF V600R (Homo sapiens, UniProt P15056, V600R); assay: Intramolecular Rluc PCA mutant BRAF reporter (V600R), transiently transfected HEK293 cells; conditions: HEK293, 1 μM, 3 h treatments (FIG. 5B)
Experimental: as §1, §4, §5

T2 sequence (P15056 with tags, fused parts or gaps V600E): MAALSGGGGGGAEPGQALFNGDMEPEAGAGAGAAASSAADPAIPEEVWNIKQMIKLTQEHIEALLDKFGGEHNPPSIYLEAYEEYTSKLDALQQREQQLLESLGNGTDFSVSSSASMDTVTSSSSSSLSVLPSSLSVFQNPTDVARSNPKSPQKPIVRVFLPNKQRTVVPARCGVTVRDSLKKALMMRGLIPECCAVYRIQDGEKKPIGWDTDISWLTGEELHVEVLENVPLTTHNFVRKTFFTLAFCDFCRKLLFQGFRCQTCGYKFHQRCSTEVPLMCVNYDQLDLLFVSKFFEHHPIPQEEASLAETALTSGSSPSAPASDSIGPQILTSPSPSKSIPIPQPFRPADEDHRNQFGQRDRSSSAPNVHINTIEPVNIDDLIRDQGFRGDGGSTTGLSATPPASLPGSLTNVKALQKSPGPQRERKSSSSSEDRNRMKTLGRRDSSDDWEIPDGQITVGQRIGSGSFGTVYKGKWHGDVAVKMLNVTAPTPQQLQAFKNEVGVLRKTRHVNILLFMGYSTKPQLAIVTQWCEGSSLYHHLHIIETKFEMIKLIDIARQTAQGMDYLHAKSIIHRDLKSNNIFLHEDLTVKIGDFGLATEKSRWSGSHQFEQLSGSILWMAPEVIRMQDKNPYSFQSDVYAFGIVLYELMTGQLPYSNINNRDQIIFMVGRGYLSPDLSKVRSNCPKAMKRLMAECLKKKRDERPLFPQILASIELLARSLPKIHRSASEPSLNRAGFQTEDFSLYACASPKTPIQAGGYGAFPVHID
Chain of BRAF V600R (P15056 with tags, fused parts or gaps V600R): as the sequence (P15056 with tags, fused parts or gaps V600E) above, with E600R counted along it
Chain of BRAF V600K (P15056 with tags, fused parts or gaps V600K): as the sequence (P15056 with tags, fused parts or gaps V600E) above, with E600K counted along it
Chain of BRAF G469A (P15056 with tags, fused parts or gaps G469A): as the sequence (P15056 with tags, fused parts or gaps V600E) above, with G469A, E600V counted along it
Chain of BRAF D594G (P15056 with tags, fused parts or gaps D594G): as the sequence (P15056 with tags, fused parts or gaps V600E) above, with D594G, E600V counted along it

Row | Structure (SMILES) | Effect on reporter luminescence signal (wild type BRAF [1]) | Effect on reporter bioluminescence signal / conformation (BRAF-V600E [2]) | Time-dependent effect on reporter conformation (Rluc PCA signal) (wild type BRAF [1]; HEK293, 1 μM (FIG. 4)) | Effect on reporter bioluminescence signal / conformation (BRAF D594G) | Time-dependent effect on reporter conformation (Rluc PCA signal) (BRAF-V600E [2]; BRAF-V600E reporter, up to 3 h (FIG. 4)) | Effect on reporter bioluminescence signal / conformation (BRAF G469A) | Effect on Gluc PCA luciferase signal / conformation (BRAF-V600E [3]) | Effect on reporter bioluminescence signal / conformation (BRAF V600K) | Effect on Gluc PCA luciferase signal / conformation (wild type BRAF [4]) | Effect on reporter bioluminescence signal / conformation (BRAF V600R)
1 | N#CC(=C(/N)Sc1ccccc1N)/C(C#N)=C(\N)Sc1ccccc1N [U0126] | only slight changes in the luminescence signal | exclusively influenced by the BRAF specific inhibitors | – | – | – | – | – | – | – | –
2 | COc1cc(F)c(F)c(Nc2ccc(I)cc2F)c1NS(=O)(=O)C1(C[C@H](O)CO)CC1 [refametinib] | only slight changes in the luminescence signal | exclusively influenced by the BRAF specific inhibitors | – | – | – | – | – | – | – | –
3 | COC(=O)N[C@@H](C)CNc1nccc(-c2cn(C(C)C)nc2-c2cc(Cl)cc(NS(C)(=O)=O)c2F)n1 [encorafenib] | only slight changes in the luminescence signal | shift to the closed conformation | – | – | – | – | – | – | – | –
4 | CC(C)(C)c1nc(-c2cccc(NS(=O)(=O)c3c(F)cccc3F)c2F)c(-c2ccnc(N)n2)s1 [dabrafenib] | only slight changes in the luminescence signal | shift to the closed conformation | – | – | – | – | – | – | – | –
5 | O=C(c1c(F)ccc(NS(=O)(=O)N2CC[C@@H](F)C2)c1F)c1c[nH]c2ncc(-c3cnc(C4CC4)nc3)cc12 [PLX8394] | not susceptible; also recorded: only slight changes in the luminescence signal | significant shift to the closed conformation | not affected | significant shift to the closed conformation | immediate shift of the BRAF-V600E reporter to the closed conformation was observed increasing up to 3 h | significant shift to the closed conformation | enhanced the luciferase signal exclusively with the V600E BRAF mutant | significant shift to the closed conformation | not affected | significant shift to the closed conformation
